Assay results reported in patent US9403820B2, “Kinase inhibitor polymorphs” (INTELLIKINE LLC, priority 2011, dated 2016).
Structures can show the parent of a compound that is named as a salt.

Key:
Format in all cases: physicochemical
[1] = Solid form stability on vacuum drying (XRPD)
Description: HCl Pattern 1: Formula I free base (ca. 500 mg) was suspended in nitromethane (50 volumes, 25 mL) with stirring. HCl (1M in THF; 1.2 equivalents; 1.65 mL) was added. The suspension was subjected to heating/cooling cycles between RT and 50° C., 4 hours at each condition for one week. […] The solid was isolated by vacuum filtration and dried under vacuum at RT for 16 hours.

[2] = GVS (gravimetric vapor sorption) moisture sorption isotherm
Description: Sorption isotherms were obtained using a SMS DVS Intrinsic moisture sorption analyser, controlled by DVS Intrinsic Control software v1.0.0.30. The sample temperature was maintained at 25° C. by the instrument controls. The humidity was controlled by mixing streams of dry and wet nitrogen, with a total flow rate of 200 mL.min−1 The relative humidity was measured by a calibrated Rotronic probe (dynamic range of 1.0-100% RH), located near the sample. The weight change (mass relaxation) of the sample as a function of % RH was constantly monitored by the microbalance (accuracy±0.005 mg). Approximately 5-20 mg of sample was placed in a tared mesh stainless steel basket under ambient conditions. The sample was loaded and unloaded at 40% RH and 25° C. (typical room conditions). A moisture sorption isotherm was performed as outlined below (2 scans giving 1 complete cycle). The standard isotherm was performed at 25° C. at 10% RH intervals over a 0-90% RH range. Data analysis was undertaken in Microsoft Excel using DVS Analysis Suite v6.0.0.7.

[3] = VH-XRPD (variable humidity XRPD) form stability
Source text: Variable humidity XRPD analysis was undertaken in order to determine if two hydrated species were present. […] On increasing the humidity, the material started to re-hydrate from 13% RH, and reverted completely back to HCl Pattern 2 by 45% RH. […] Only one XRPD pattern was observed upon dehydration and it is not possible to conclude whether this is a totally anhydrous or partially hydrated form.

[4] = Stability at 40° C./75% RH (XRPD after storage); conditions: 3 weeks storage, by XRPD

SMILES	Form stability on drying under vacuum at RT for 16 hours (XRPD) [1]	GVS reversible uptake ([2]; between 40-90% RH, 25° C.)	GVS: RH to which the form appeared stable ([2]; dehydration observed below, rehydration by 40%) [% RH]	GVS water content at the end of the experiment ([2]; end of GVS experiment) [wt %]	GVS water content at the end of the experiment, equivalents ([2]; end of GVS experiment) [eqs]	VH-XRPD: RH below which the material starts to change ([3]; full conversion to HCl Pattern 3 at 0.5% RH)	VH-XRPD: RH to which the form is stable ([3]; then starts to change to HCl Pattern 3) [% RH]	Stability at 40° C./75% RH [4]
Nc1nc2cc(-c3ccc4ncc(C(=O)N5CCOCC5)n4c3)ccc2o1 [HCl Pattern 1]	partially reverted to the free base	–	–	–	–	–	–	–
Nc1nc2cc(-c3ccc4ncc(C(=O)N5CCOCC5)n4c3)ccc2o1 [HCl Pattern 2]	–	Reversible uptake of ca. 6 wt % between 40-90% RH.	≥ 30	10.6	3.0	The material starts to change below 25% RH, with full conversion to HCl	≥ 14	No significant changes observed by XRPD after 3 weeks storage
